Where a name gives a salt, the structure may show the parent alone. Read-outs that look alike come from different tables or passages of the source.
Experiments:
[1] = system: T lymphocyte proliferation (C57BI/6 spleen cells with irradiated BALB/c spleen cells); experiment: Mixed lymphocyte reaction (MLR), one-way; format: cell-based, mice; conditions: read-out: MLR IC50
Procedure, shortened: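 Irradiated BALB/c spleen cells mixed with C57BI/6 spleen cells in RPMI1640/10% heat-inactivated FBS/2-mercaptoethanol, with serial antagonist dilutions; 3 days at 5% CO2. Tritiated thymidine (0.5 μCi/well) added on day 3; incorporation counted by liquid scintillation after a further 6 h.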

[2] = target: T1, LFA-1 binding to immobilized ICAM-1 (Homo sapiens, UniProt P05107+P20701); experiment: LFA-1/ICAM-1 protein-protein assay (solid-phase ELISA); conditions: read-out: LFA-1/ICAM-1 Protein-Protein Assay IC50
T1 construct: made in house; host or cells: transfected 293 cells (LFA-1)
Procedure, shortened: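 Human 5dICAM-Ig (ICAM-1 extracellular domain–IgG Fc) coated on plates; membrane-bound LFA-1 from transfected 293 cells (280 ng/mL) added with compound in Mn2+-containing HEPES buffer pH 7.2, 2 h at 37° C. Bound LFA-1 detected via anti-β2 antibody and HRP/TMB at 450 nm; IC50s determined.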

T1 sequence (P20701 26-1170): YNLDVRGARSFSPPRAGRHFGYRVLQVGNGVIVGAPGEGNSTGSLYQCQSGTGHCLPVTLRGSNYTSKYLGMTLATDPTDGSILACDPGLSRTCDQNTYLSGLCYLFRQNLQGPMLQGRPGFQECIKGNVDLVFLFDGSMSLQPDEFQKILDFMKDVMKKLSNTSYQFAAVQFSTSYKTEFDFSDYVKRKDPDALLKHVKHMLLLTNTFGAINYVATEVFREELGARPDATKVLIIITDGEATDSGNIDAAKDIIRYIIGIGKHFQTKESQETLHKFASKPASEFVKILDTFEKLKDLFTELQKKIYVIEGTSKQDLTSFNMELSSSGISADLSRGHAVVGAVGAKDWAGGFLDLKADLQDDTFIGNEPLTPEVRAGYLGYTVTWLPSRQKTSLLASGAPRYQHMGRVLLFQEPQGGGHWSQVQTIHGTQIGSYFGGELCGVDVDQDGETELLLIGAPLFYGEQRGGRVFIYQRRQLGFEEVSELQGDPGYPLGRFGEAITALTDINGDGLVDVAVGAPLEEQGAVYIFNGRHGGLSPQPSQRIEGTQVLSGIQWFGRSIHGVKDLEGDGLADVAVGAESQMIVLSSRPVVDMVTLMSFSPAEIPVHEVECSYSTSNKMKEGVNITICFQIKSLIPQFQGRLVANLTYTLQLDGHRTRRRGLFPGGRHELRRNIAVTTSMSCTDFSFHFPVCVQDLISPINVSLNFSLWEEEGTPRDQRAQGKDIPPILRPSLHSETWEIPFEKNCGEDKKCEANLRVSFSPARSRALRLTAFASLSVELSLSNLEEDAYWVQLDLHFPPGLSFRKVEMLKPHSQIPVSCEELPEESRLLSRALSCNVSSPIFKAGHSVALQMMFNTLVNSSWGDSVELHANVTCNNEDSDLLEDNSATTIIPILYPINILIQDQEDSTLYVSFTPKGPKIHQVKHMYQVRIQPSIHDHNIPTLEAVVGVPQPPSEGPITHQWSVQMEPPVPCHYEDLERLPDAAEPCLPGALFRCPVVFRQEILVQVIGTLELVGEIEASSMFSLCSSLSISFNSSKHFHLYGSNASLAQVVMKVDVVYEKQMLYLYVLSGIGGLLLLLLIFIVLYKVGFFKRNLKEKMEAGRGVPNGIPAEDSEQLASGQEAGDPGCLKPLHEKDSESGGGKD
T1 sequence (P05107 23-769): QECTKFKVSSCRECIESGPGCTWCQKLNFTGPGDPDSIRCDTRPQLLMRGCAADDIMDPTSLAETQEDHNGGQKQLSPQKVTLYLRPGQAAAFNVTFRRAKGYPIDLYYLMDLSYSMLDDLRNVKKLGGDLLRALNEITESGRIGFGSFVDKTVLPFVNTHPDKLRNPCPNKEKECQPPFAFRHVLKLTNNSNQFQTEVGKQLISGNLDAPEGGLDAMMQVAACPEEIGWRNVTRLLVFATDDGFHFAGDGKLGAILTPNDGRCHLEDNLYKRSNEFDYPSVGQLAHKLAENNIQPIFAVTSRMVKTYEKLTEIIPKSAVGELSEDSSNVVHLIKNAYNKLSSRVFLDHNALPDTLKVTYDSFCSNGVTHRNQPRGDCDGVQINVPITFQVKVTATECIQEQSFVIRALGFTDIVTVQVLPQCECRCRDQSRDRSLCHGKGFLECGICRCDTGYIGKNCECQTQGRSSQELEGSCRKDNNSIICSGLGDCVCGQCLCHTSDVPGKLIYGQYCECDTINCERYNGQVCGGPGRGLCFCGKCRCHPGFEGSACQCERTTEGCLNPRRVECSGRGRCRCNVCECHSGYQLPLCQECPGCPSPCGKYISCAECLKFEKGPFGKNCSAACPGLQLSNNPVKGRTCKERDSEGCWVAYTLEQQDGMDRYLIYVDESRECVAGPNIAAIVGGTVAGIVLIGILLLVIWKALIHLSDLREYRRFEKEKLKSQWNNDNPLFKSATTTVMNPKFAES

SMILES	IC50 [2]	IC50 ([1]; Mus musculus, T-lymphocyte)	IC50 ([1]; sodium salt)
O=C(NCc1cccc(O)c1)c1ccc(C(=O)N[C@@H](CNC(=O)c2ccc3ccccc3c2)C(=O)O)c(Cl)c1 [Example 179]	3.6 nM	5400 nM	
O=C(NCc1cccc(O)c1)c1ccc(C(=O)N[C@@H](CNC(=O)c2cnc3ccccc3c2)C(=O)O)c(Cl)c1 [Example 183]	12 nM	4600 nM	
O=C(NCc1cccc(O)c1)c1ccc(C(=O)N[C@@H](CNC(=O)c2cc(=O)c3ccccc3o2)C(=O)O)c(Cl)c1 [Example 187]	12 nM	2800 nM	
CC(C)C(=O)NC[C@H](NC(=O)c1ccc(C(=O)NCc2cccc(O)c2)cc1Cl)C(=O)O [Example 194]	1.9 nM	800 nM	
CC(C)CC(=O)NC[C@H](NC(=O)c1ccc(C(=O)NCc2cccc(O)c2)cc1Cl)C(=O)O [Example 195]	2 nM	840 nM	
O=C(NCc1cccc(O)c1)c1ccc(C(=O)N[C@@H](CNC(=O)[C@@H]2CCCN2)C(=O)O)c(Cl)c1 [Example 196]	2.8 nM	5500 nM	
CSCC[C@H](N)C(=O)NC[C@H](NC(=O)c1ccc(C(=O)NCc2cccc(O)c2)cc1Cl)C(=O)O [Example 197]	4.9 nM	22500 nM	
NCCCC[C@H](N)C(=O)NC[C@H](NC(=O)c1ccc(C(=O)NCc2cccc(O)c2)cc1Cl)C(=O)O [Example 198]	12 nM	21500 nM	
N[C@@H](Cc1ccccc1)C(=O)NC[C@H](NC(=O)c1ccc(C(=O)NCc2cccc(O)c2)cc1Cl)C(=O)O [Example 199]	7.4 nM	19000 nM	
NC(=O)C[C@H](N)C(=O)NC[C@H](NC(=O)c1ccc(C(=O)NCc2cccc(O)c2)cc1Cl)C(=O)O [Example 200]	2.9 nM	3100 nM	
N[C@@H](Cc1c[nH]c2ccccc12)C(=O)NC[C@H](NC(=O)c1ccc(C(=O)NCc2cccc(O)c2)cc1Cl)C(=O)O [Example 201]	7.6 nM	17300 nM	
N[C@@H](CCC(=O)NC[C@H](NC(=O)c1ccc(C(=O)NCc2cccc(O)c2)cc1Cl)C(=O)O)C(=O)O [Example 202]	1.8 nM	500 nM	
O=C(NC[C@H](NC(=O)c1c(Cl)cccc1Cl)C(=O)O)c1ccccc1 [Example 219]	13 nM	7250 nM	
O=C(NC[C@H](NC(=O)c1c(Cl)cccc1Cl)C(=O)O)c1ccc(Br)s1 [Example 223]	6.4 nM	3600 nM	
O=C(NC[C@H](NC(=O)c1c(F)cccc1Cl)C(=O)O)c1ccc(Br)s1 [Example 224]	24 nM	11100 nM	
Cc1nnsc1C(=O)NC[C@H](NC(=O)c1ccc(C(=O)NCc2cccc(O)c2)cc1Cl)C(=O)O [Example 255]	2.9 nM	1850 nM	
COc1c(C(=O)NC[C@H](NC(=O)c2ccc(C(=O)NCc3cccc(O)c3)cc2Cl)C(=O)O)csc1Cl [Example 258, N-[2-chloro-4-[[[(3-hydroxyphenyl)methyl]amino]carbonyl]benzoyl]-3-(5-chloro-4-methoxythiophene-3-carbonyl)amino-L-alanine]	2.2 nM	3750 nM	
NCCCC(=O)NC[C@H](NC(=O)c1ccc(C(=O)NCc2cccc(O)c2)cc1Cl)C(=O)O [Example 261, N-[2-chloro-4-[[[(3-hydroxyphenyl)methyl]amino]-carbonyl]benzoyl]-3-(4-aminobutanoylamino)-L-alanine]	2.2 nM	780 nM	
O=C(NCc1cccc(O)c1)c1ccc(C(=O)N[C@@H](CNC(=O)C2CCNCC2)C(=O)O)c(Cl)c1 [Example 262]	4.8 nM	1800 nM	
NC1(C(=O)NC[C@H](NC(=O)c2ccc(C(=O)NCc3cccc(O)c3)cc2Cl)C(=O)O)CCCC1 [Example 263]	4.2 nM	2100 nM	
N[C@H]1CC[C@@H](C(=O)NC[C@H](NC(=O)c2ccc(C(=O)NCc3cccc(O)c3)cc2Cl)C(=O)O)CC1 [Example 264]	4.6 nM	1950 nM	
Nc1cccn(CC(=O)NC[C@H](NC(=O)c2ccc(C(=O)NCc3cccc(O)c3)cc2Cl)C(=O)O)c1=O [Example 266]	4.6 nM	3050 nM	
O=C(O)CCCC(=O)NC[C@H](NC(=O)c1ccc(C(=O)NCc2cccc(O)c2)cc1Cl)C(=O)O [Example 298]	4.8 nM	1800 nM	
O=C(NCc1cccc2[nH]ccc12)c1ccc(C(=O)N[C@@H](CNC(=O)c2ccccc2)C(=O)O)c(Cl)c1 [Example 314, 3-(benzoylamino)-N-[2-chloro-4-[[(1H-indol-4-ylmethyl)amino]carbonyl]benzoyl]-L-alanine]	1.9 nM	625 nM	

Now those with a lower IC50 [2], led by results:

IC50 [2]	SMILES	IC50 ([1]; Mus musculus, T-lymphocyte)	IC50 ([1]; sodium salt)
1.3 nM	O=C(NCc1cccc(O)c1)c1ccc(C(=O)N[C@@H](CNC(=O)c2ccc3c(c2)S(=O)(=O)c2ccccc2C3=O)C(=O)O)c(Cl)c1 [Example 192]	1700 nM	
0.7 nM	CC(=O)NC[C@H](NC(=O)c1ccc(C(=O)NCc2cccc(O)c2)cc1Cl)C(=O)O [Example 193]	830 nM	
0.9 nM	O=C(NCc1cccc(O)c1)c1ccc(C(=O)N[C@@H](CNC(=O)c2cc(F)cc(F)c2)C(=O)O)c(Cl)c1 [Example 252, N-[2-chloro-4-[[[(3-hydroxyphenyl)methyl]amino]carbonyl]benzoyl]-3-(3,5-difluorobenzoyl)amino-L-alanine]	340 nM	
0.7 nM	O=C(NCc1cccc(O)c1)c1ccc(C(=O)N[C@@H](CNC(=O)c2csnn2)C(=O)O)c(Cl)c1 [Example 254]	460 nM	
0.8 nM	O=C(NCc1cccc(O)c1)c1ccc(C(=O)N[C@@H](CNC(=O)c2ccno2)C(=O)O)c(Cl)c1 [Example 256]	525 nM	
1.2 nM	COc1cscc1C(=O)NC[C@H](NC(=O)c1ccc(C(=O)NCc2cccc(O)c2)cc1Cl)C(=O)O [Example 257]	1400 nM	
1.2 nM	O=C(NCc1cccc(O)c1)c1ccc(C(=O)N[C@@H](CNC(=O)c2ccoc2)C(=O)O)c(Cl)c1 [Example 259, N-[2-chloro-4-[[[(3-hydroxyphenyl)methyl]amino]carbonyl]benzoyl]-3-(furan-3-carbonyl)amino-L-alanine]	260 nM	
0.8 nM	O=C(O)c1cccc(C(=O)NC[C@H](NC(=O)c2ccc(C(=O)NCc3cccc(O)c3)cc2Cl)C(=O)O)c1 [Example 297]	1650 nM	
0.9 nM	O=C(NCc1cccc(O)c1)c1ccc(C(=O)N[C@@H](CNC(=O)c2ccccc2)C(=O)O)c(Cl)c1 [Example 302, 3-benzoylamino-N-[2-chloro-4-[[[(3-hydroxyphenyl)methyl]amino]carbonyl]benzoyl]-L-alanine]	310 nM	
0.5 nM	O=C(NCc1cccc(O)c1)c1ccc(C(=O)N[C@@H](CNC(=O)c2cccs2)C(=O)O)c(Cl)c1 [Example 303, N-[2-chloro-4-[[[(3-hydroxyphenyl)methyl]amino]carbonyl]benzoyl]-3-(thiophene-2-carbonyl)amino-L-alanine]	70 nM	
1 nM	O=C(NCc1cccc(O)c1)c1ccc(C(=O)N[C@@H](CNC(=O)c2cccs2)C(=O)O)c(Cl)c1 [Example 305, N-[2-chloro-4-[[[(3-hydroxyphenyl)methyl]amino]carbonyl]benzoyl]-3-(thiophene-2-carbonyl)amino-L-alanine, sodium salt]		100 nM

From patent publication US20040006236A1, “Diaminopropionic acid derivatives” (priority 1999, published 2004)
